Here are results for 14 compounds from publication PMC7024557, “Synthesis of Novel Structural Hybrids between Aza-Heterocycles and Azelaic Acid Moiety with a Specific Activity on Osteosarcoma Cells” (Molecules, 2020).

The subject of series [1] is U2OS cell line. Also noted: method as in PMID 31646829, PMID 26298721. To be noted: ref [30],[31]; cited from earlier work.
For series [2], the system named is U2OS (human osteosarcoma). Put plainly: MTT assay, cell viability. To be noted: for IC50: Homo sapiens, U2OS, after 48 h of treatment, n.a. = non active; for sensitivity of U2OS to the compound (IC50 analysis): only U2OS among tumor cell lines. In kind it is cell-based. An excerpt: (§1) Cell lines included in the evaluation of toxicity profiles were malignant U2OS, HT29, PC3, and IGROV1, and a normal human adult fibroblast cell line HDFa.
(§2) The human prostate cancer (PC3), human colon cancer (HT29), human bone osteosarcoma (U2OS), and normal human adult fibroblast (HDFa) cell lines were purchased from American Type Culture Collection (ATCC, Manassas, VA, USA), while the human ovarian cancer cell line (IGROV1) was kindly provided by Istituto Nazionale Tumori (IRCCS, Milano, Italy). Cells were cultured in Roswell Park Memorial Institute (RPMI)-1640 medium (Labtek Eurobio, Milan, Italy), supplemented with 10% fetal calf serum (FCS; Euroclone, Milano, Italy) and 2mM L-glutamine (Sigma-Aldrich, Milano, Italy), at 37 °C and 5% CO2 atmosphere. The compounds were dissolved in dimethyl sulfoxide (DMSO) in a 60 mM stock solution. In cell treatments, the final DMSO concentration never exceeded 0.1%.
(§3) U2OS were seeded at 1.5 × 10^4 cells/well in a 96-well culture plastic plate (Orange Scientific, Braine-l’Alleud, Belgium) and, after 24 h of growth, cells were exposed for additional 48 h to increasing concentrations of compounds (0.1 µM and […]) solubilized in RPMI-1640 medium. On the day of measurement, the culture medium was replaced with 0.1 mL of 3-(4,5-dimethylthiazolyl-2)-2,5-diphenyltetrazolium bromide (MTT, Sigma-Aldrich) dissolved in phosphate-buffered saline (PBS) at the concentration of 0.2 mg/mL, and samples were incubated for 2 h at 37 °C. To dissolve the blue-violet formazan salt crystals formed, 0.1 mL of isopropyl alcohol was added to each well and incubated for 20 min. The absorbance at 570 nm was measured using a multiwell plate reader (Wallac Victor2, PerkinElmer, Milano, Italia), and viability was compared with that of untreated cells, used as controls.

Series [3] deals with HT29 (human colon adenocarcinoma). The series is described as follows: MTT assay, cell viability. The series is classed as cell-based. Conditions: HT-29, after 48 h of treatment, n.a. = non active.
From the text: as §1, §2, §3
(In general: Tetrazolium dyes change colour on reduction, which living cells bring about.)

Series [4] deals with human osteosarcoma growth. Details: method as in PMID 24344034, PMID 30697272. To be noted: ref [32],[33]; read-out: IC50, inhibition of human osteosarcoma growth; cited from earlier work.
In series [5] the test system is U2OS cells. Put plainly: Cell-cycle assay by flow cytometry (PI fluorescence, forward scatter). The series is classed as cell-based, human. To be noted: 24 h; for mean channel of FS distribution (nuclear size): U2OS nuclei, 35 μM of 6, 50 μM of 5a or 8a, control cells 730; for effect on cell-cycle progression: U2OS, 35 μM of compound 6, 50 μM of 5a, 50 μM of 8a. The protocol:
To infer whether their effects were due to interference with cell-cycle progression, DNA profiles of cultured cells were examined by flow cytometry. […] As clear from Figure 3, the nuclei in all cell-cycle phases were affected.
For the cell-cycle assay, U2OS cells were treated for 24 h with 35 μM of compound 6, 50 μM of 5a, or 50 μM of 8a, detached with 0.11% trypsin (Sigma-Aldrich, S.Louis, MO, USA)/0.02% ethylenediaminetetraacetic acid (EDTA) (Sigma-Aldrich, S.Louis, MO, USA), washed in PBS, and centrifuged. The pellet was resuspended in 0.01% Nonidet P-40 (Sigma-Aldrich, S.Louis, MO, USA), 10 μg/mL RNase (Sigma-Aldrich, S.Louis, MO), 0.1% sodium citrate, and 50 μg/mL propidium iodide (PI) (Sigma-Aldrich, S.Louis, MO, USA), for 30 min at room temperature in the dark. PI fluorescence and forward scatter (FS) signals were analyzed using a Beckman Coulter Epics XL-MCL flow cytometer. DNA distribution in the cell cycle was analyzed by the MODFIT 5.0 software. As the signal collected by a multichannel analyzer, the mean of the FS distribution is expressed as mean channel.

Series [6] concerns acetylated histones H2/H3 and H4 in U2OS cells. The series is described as follows: Histone acetylation, Western blot with anti-acetyl lysine antibody. In kind it is cell-based, human. Conditions: 6 h, densitometry normalized on histone H1, vs control. An excerpt: To identify acetylated histones, we analyzed the nuclear cell lysates by Western blot using a 15% polyacrylamide gel electrophoresis. After electrophoresis, the proteins were transferred to a nitrocellulose membrane and then immunoblotted with an anti-acetyl lysine monoclonal antibody. […] Differences in the density of bands are thought to reflect differences in protein acetylation levels. Histone acetylation signals were quantified by densitometry and normalized on histone H1. Histones H2/H3 acetylation increased by 28% upon treatment with 6 for 6 h with no effect on H4 acetylation, whereas compound 8a induced hyperacetylation by 30% on histone H4 only.
U2OS were cultured with 5a, 6, or 8a, for 6 h, and the histone fraction was immediately extracted. Cells were harvested using 0.11% trypsin and 0.02% EDTA, washed twice with 10 mM sodium butyrate (NaBu) in PBS, and nuclei were isolated according to Amellem et al.. The nuclear pellet was suspended in 0.1 mL of ice-cold water using a Vortex mixer, and concentrated H2SO4 was added to the suspension to give a final concentration of 0.4 N. After incubation at 4 °C for 1 h, the suspension was centrifuged for 5 min at 14,000× g, and the supernatant was taken and mixed with 1 mL of acetone. After overnight incubation at −20 °C, the coagulate material was collected by microcentrifugation and air-dried, and proteins were quantified using a protein assay kit (Bio-Rad, Hercules, CA, USA). Histones were analyzed as previously described. Briefly, histones were resolved by 15% SDS-PAGE and immunoblotted with anti-acetylated lysine antibody (Cell Signaling Technology, Beverly, MA, USA); the detection of immunoreactive bands was performed with a secondary antibody conjugated with horseradish peroxidase and developed with an enhanced chemiluminescence (ECL) system, developed with the enhanced chemiluminescence system Clarity Western (Bio-Rad, Hercules, CA, USA), and quantification was done by Fluor-S Max MultiImager (Bio-Rad). Histone acetylation signals were quantified by densitometry and normalized on histone H1.
A general note: Immunoblotting shows a protein as a band on a membrane.

Series [7] has as its system U2OS cells. Put plainly: Hoechst 33,342 nuclear staining, confocal microscopy. Conditions: 24 h. In kind it is cell-based, human. As to the method:
These effects induced by the above compounds on histone acetylation are not associated with events involved in apoptotic death.
Nuclear morphology was assayed using a specific dye Hoechst 33,342. U2OS treated cells were washed, fixed, and then stained with 1 µM Hoechst 33,342 (Sigma-Aldrich, St Louis, MO, USA) for 15 min. Samples were embedded in Mowiol and analyzed using a Nikon C1s confocal laser-scanning microscope, equipped with a Nikon PlanApo 40×, 1.4 numerical aperture (NA) oil immersion lens. Images were quantified by ImageJ software (IMAJ 1.x).

For series [8], the system named is PC3 (human prostatic carcinoma). Put plainly: MTT assay, cell viability. In kind it is cell-based. To be noted: after 48 h of treatment, n.a. = non active.
From the text: as §1, §2, §3

In series [9] the test system is IGROV1 (human ovarian carcinoma). The series is described as follows: MTT assay, cell viability. The series is classed as cell-based. Conditions: IGROV-1, after 48 h of treatment, n.a. = non active.
From the text: as §1, §2, §3

A value given as a limit tells only on which side of the number the result lay.

One may read the IC50 as the point on the concentration scale where inhibition reaches its midpoint. In the case of `N.N.[Cl][Pt][Cl]` [Cisplatin], the IC50 in [1] was 1.67 µM.

As a reminder, the melting point is the temperature, or range, at which the solid turns liquid. Compound `COC(=O)CCCCCCCC(=O)Nc1ccccn1` [4a, Methyl 9-oxo-9-(pyridin-2-ylamino)nonanoate] came in with a melting point of 59 to 60 °C. The compound also registered an IC50 in [2] above 100 µM. Also, in series [3], the IC50 was above 100 µM.

Compound `COC(=O)CCCCCCCC(=O)Nc1cccnc1` [4b, Methyl 9-oxo-9-(pyridin-3-ylamino)nonanoate] displayed a melting point of 75.5 to 77.7 °C. The same compound had an IC50 in series [2] above 100 µM. In addition, the IC50 in series [3] is above 100 µM.

For `CCCC(=O)[O-].[Na+]` [sodium butyrate], in [4], the IC50 is 5 µM.

As to `O=c1[nH]cc(F)c(=O)[nH]1` [5-fluorouracile], the IC50 in [1] was 0.3 µM.

`COC(=O)CCCCCCCC(=O)Nc1ncccn1` [5a, Methyl 9-oxo-9-(pyrimidin-2-ylamino)nonanoate]: in series [5], the “mean channel of FS distribution (nuclear size)” value (from here on “mean channel of FS distribution”) is reported as 735 and the “effect on cell-cycle progression” value was “slight accumulation in the synthesis (S) phase”. Moreover, in [2], the IC50 is 50 µM and the “sensitivity of U2OS to the compound (IC50 analysis)” value (from here on “sensitivity of U2OS to the compound”) is on record as “sensitive”. Besides, in [6], the “increase of histone H4 acetylation” value came to 22% and the “increase of histones H2/H3 acetylation” value came to 89%. Moreover, the “nuclear morphology by Hoechst 33,342 staining” value (“nuclear morphology” below) in [7] is “dim staining of nuclei”.

Turning to `COC(=O)CCCCCCCC(=O)n1cnc2ccccc21` [8a, Methyl 9-(1H-benzo[d]imidazol-1-yl)-9-oxononanoate], in [5], the “mean channel of FS distribution” value worked out at 780 and the “effect on cell-cycle progression” value is “slight accumulation in the synthesis (S) phase”. For the same compound, in series [2], half-maximal inhibition (IC50) was put at 50 µM and the “sensitivity of U2OS to the compound” value is “sensitive”. In addition, in series [8], the IC50 is above 100 µM. Moreover, in series [3], the IC50 is above 100 µM. For the same compound, in series [6], the “increase of histone H4 acetylation” value worked out at 30%. In series [7], the “nuclear morphology” value is listed as “dim staining of nuclei”.

On to `COC(=O)CCCCCCCC(=O)N(C(=O)CCCCCCCC(=O)OC)c1ncccn1` [compound 6, Dimethyl 9,9’-(pyrimidin-2-ylazanediyl)bis(9-oxononanoate)], for which, in series [5], the “mean channel of FS distribution” value stood at 905 and the “effect on cell-cycle progression” value is “increase in the gap 0/gap 1 (G0/G1) fraction, with concomitant decrease in the G2/mitosis (M) phase”. For the same compound, in [2], the IC50 came to 35 µM and the “sensitivity of U2OS to the compound” value is given as “sensitive”. The compound further came in with an IC50 in series [3] above 100 µM. Further, in series [6], the “increase of histone H4 acetylation” value was “no effect” and the “increase of histones H2/H3 acetylation” value came to 28%. The “nuclear morphology” value in series [7] was “increase in nuclear size”.

On to `COc1cccc2c1C(=O)c1c(O)c3c(c(O)c1C2=O)C[C@@](O)(C(=O)CO)C[C@@H]3O[C@H]1C[C@H](N)[C@H](O)[C@H](C)O1` [doxorubicin], for which the IC50 in series [1] is 0.5 µM.

Take `COC(=O)CCCCCCCC(=O)n1nnc2ccccc21` [8b, Methyl 9-(1H-benzo[d][1,2,3]triazol-1-yl)-9-oxononanoate]: the melting point was in the range of 55.5 to 57.2 °C. Besides, the IC50 in [9] was above 100 µM.

Turning to `COC(=O)CCCCCCCC(=O)Nc1ccncn1` [5b, Methyl 9-oxo-9-(pyrimidin-4-ylamino)nonanoate], the melting point lay within 92 to 94.2 °C. In addition, in series [2], the IC50 is above 100 µM. In series [9], this compound displayed an IC50 above 100 µM.

For `CC(/C=C/C(=O)NO)=C\[C@@H](C)C(=O)c1ccc(N(C)C)cc1` [trichostatin A], the IC50 in series [4] is 0.5 µM.

`COC(=O)CCCCCCCC(=O)Nc1cncnc1` [5c, Methyl 9-oxo-9-(pyrimidin-5-ylamino)nonanoate] had a melting point of 78.6 to 80.2 °C. In [8], this compound yielded an IC50 above 100 µM. The IC50 in series [3] was above 100 µM. In series [9], this compound yielded a 50% inhibitory concentration (IC50) above 100 µM.

The compound `COC(=O)CCCCCCCC(=O)Nc1ccncc1` [4c, Methyl 9-oxo-9-(pyridin-4-ylamino)nonanoate] showed a melting point of 83 to 85 °C. Also, the IC50 in series [2] was above 100 µM.
